What was measured:
Conditions in all cases: 25° C., 1% bleach activator, 15% by weight sodium percarbonate in color laundry detergent, 30 min wash
[1] = Launderometer bleaching test, red wine stain
Method: (§1) Standard test in a launderometer with 5% activator addition at 25° C. and 50° C. of tea-, red wine-, grass- and curry-stained fabric. In addition, the removal of triolein and olive oil stains from cotton fabric is investigated. To this end, triolein and olive oil are dyed with 0.1% Sudan red 7 B (=Solvent Red 19). This dye is dissolved and homogenized beforehand with gentle warming. The preparation is effected by adding dropwise with a pipette, in the course of which the test fabric is stretched. 0.1 g of the solution is added dropwise and spreads on the fabric overnight. All test specimens are determined twice.
(§2) To this end, 15% by weight of bleach (sodium percarbonate) and 1.2 and 5% by weight of the appropriate activator are mixed into a commercial color laundry detergent which is homogenized in dry form.
The bleaching experiments in the launderometer are evaluated by reflectance measurement and calculation of the bleaching action on the bleachable stains used (tea, red wine, grass, curry, triolein and olive oil). The standard deviation of the reflectance R is <1%. […]
Mixing of stock hardness 1 (Ca^+++Mg^++) and stock hardness 2 (NaHCO3), both 0.8 mol/l in each case. […] The water hardness is determined by using Titriplex solution. • Stock hardness 1 94.09 g of calcium chloride 2H2O and 32.53 g of magnesium chloride. […]

[2] = Launderometer test, removal of triolein stain dyed with Sudan red 7 B
Method: as §1, §2
(§3) The bleaching experiments in the launderometer are evaluated by reflectance measurement and calculation of the bleaching action on the bleachable stains used (tea, red wine, grass, curry, triolein and olive oil). The standard deviation of the reflectance R is <1%.
(§4) Mixing of stock hardness 1 (Ca^+++Mg^++) and stock hardness 2 (NaHCO3), both 0.8 mol/l in each case. Hard water is tested before use. The water hardness is determined by using Titriplex solution. • Stock hardness 1 94.09 g of calcium chloride 2H2O and 32.53 g of magnesium chloride. […]

[3] = Launderometer bleaching test, tea stain
Method: as §1, with “Standard test in a launderometer with 5% activator addition at 25° C. and 50° C. of tea-, red wine-, grass- and curry-stained fabric.” left out
(§5) The bleaching experiments in the launderometer are evaluated by reflectance measurement and calculation of the bleaching action on the bleachable stains used (tea, red wine, grass, curry, triolein and olive oil).
(§6) Commercially unavailable stains such as tea, chlorophyll were premeasured individually.
as §4

[4] = Launderometer bleaching test, grass stain
Method: as §1, with “Standard test in a launderometer with 5% activator addition at 25° C. and 50° C. of tea-, red wine-, grass- and curry-stained fabric.” left out
as §5, §6, §4

[5] = Launderometer test, removal of olive oil stain dyed with Sudan red 7 B
Method: as §1, §2, §3, §4

[6] = Launderometer bleaching test, curry stain
Method: as §1, §2, §3, §4

Compound | reflectance, Red wine [1] [%] | reflectance, Triolein [2] [%] | reflectance, Tea [3] [%] | reflectance, Grass [4] [%] | reflectance, Olive oil [5] [%] | reflectance, Curry [6] [%]
C[N+]1(CC#N)CCOCC1.O=S(=O)([O-])O [BMG, methylmorpholinioacetonitrile hydrogensulfate] | 61.8 | 42.2 | 48.5 | 40.1 | 39.9 | 69.2
CC(=O)N(CCN(C(C)=O)C(C)=O)C(C)=O [TAED, tetraacetylethylenediamine] | 58.4 | 42.6 | 34.5 | 39.2 | 40.0 | 65.1

From patent US7977434B2, “Polymeric hydrophobic aminonitrile quats used for bleach activation” (BASF Aktiengesellschaft, priority 2005, dated 2011)
